From US11993603B2, “Preparation for 6-amino-1H-pyrazolo[3,4-d]pyrimidine-based JAK kinase inhibitor and application thereof” (INSTITUTE OF MATERIA MEDICA, CHINESE ACADEMY OF MEDICAL …, priority 2018, dated 2024) come the findings set out here.

Holding throughout (type): biochemical
One assay deals with JAK-2 (Homo sapiens (Human), UniProt O60674). Description: Inhibition test on JAK-2 kinase (FRET peptide substrate assay). The note with it: kinase 1 nM, 1 h at room temperature. An excerpt:
(§1) Experiment Example (Inhibition Tests on JAK-1, JAK-2 and JAK-3 Kinases)
(§2) To evaluate the inhibitory activity of the compound on JAK-1, JAK-2 and JAK-3 kinases
(§3) A proteolytic enzyme is coupled to exert different proteolysis on a specific phosphorylated and nonphosphorylated peptide substrate based on fluorescence resonance energy transfer (FRET). Both ends of the peptide substrate were respectively labeled FRET energy donor coumarin and energy receptor fluorescein, and at this time, the donor was stimulated to produce energy transfer when the donor is close to a receptor.
(§4) In Kinase Reaction, JAK-1, JAK-2 or JAK-3 may transfer γ-phosphoric acid in ATP onto a single tyrosine residue of a peptide substrate; and there were JAK-1, JAK-2 or JAK-3 inhibitors in the system, γ-phosphoric acid groups on ATP would be not transferred onto the peptide substrate, thus resulting in the failure of phosphorylation. An evaluation experiment was designed based on the principle, a peptide substrate was designed with kinase phosphorylation sites, namely, protein restriction enzyme cutting sites; and both ends thereof were respectively connected with 2 fluorophores as a donor and a receptor respectively; if the kinase kept activity in the system, a γ-phosphonic acid group was transferred onto restriction enzyme cutting sites of the substrate, so that the γ-phosphonic acid group would not be cut and separated into two segments by a protease; moreover, under the stimulation of a laser having a specific wavelength, energy from a segment of fluorescence would be transferred onto another end of fluorophores, thus emitting energy. Otherwise, after kinase activity was inhibited, phosphoric acid groups would be not transferred, and restriction enzyme cutting sites in the substrate would be cut by a […] in the system to separate the substrate into two segments, thereby no energy transfer of fluorescence occurred. Based on this, the activity of the kinase was evaluated.
(§5) In this experiment, a 10 μl kinase reaction system was selected, firstly, 2.5 μl kinase (concentration: 1 nM), 2.5 μl peptide substrate (concentration: 2 μM), 2.5 μl ATP (concentration: […]) and 2.5 μl compound were added to each system for reaction for 1 h at room temperature, and then a 5 μl test solution was added for reaction for 1 h at room temperature, then a 5 μl stop buffer was added. A microplate reader (Synergy H1, BioTek, USA) was used to measure fluorescence intensity (emission intensity of coumarin at 445 nm and emission intensity of fluorescein at 520 nm were detected under the stimulation of 400 nm). The inhibitory activity of each compound was calculated, where it was believed that fluorescence intensity of a well not containing the kinase was 100% inhibited.

A further assay addresses JAK-3 (Homo sapiens (Human), UniProt P52333). Description: Inhibition test on JAK-3 kinase (FRET peptide substrate assay). The note with it: kinase 1 nM, 1 h at room temperature; read-out: IC50 (nM) JAK-3.
Excerpt: as §1, §2, §3, §4, §5

The next assay concerns the target JAK-1 (Homo sapiens (Human), UniProt P23458). Description: Inhibition test on JAK-1 kinase (FRET peptide substrate assay). The note with it: kinase 1 nM, 1 h at room temperature.
Excerpt: as §1, §2, §3, §4, §5

Sequence of JAK-3 (P52333 whole entry): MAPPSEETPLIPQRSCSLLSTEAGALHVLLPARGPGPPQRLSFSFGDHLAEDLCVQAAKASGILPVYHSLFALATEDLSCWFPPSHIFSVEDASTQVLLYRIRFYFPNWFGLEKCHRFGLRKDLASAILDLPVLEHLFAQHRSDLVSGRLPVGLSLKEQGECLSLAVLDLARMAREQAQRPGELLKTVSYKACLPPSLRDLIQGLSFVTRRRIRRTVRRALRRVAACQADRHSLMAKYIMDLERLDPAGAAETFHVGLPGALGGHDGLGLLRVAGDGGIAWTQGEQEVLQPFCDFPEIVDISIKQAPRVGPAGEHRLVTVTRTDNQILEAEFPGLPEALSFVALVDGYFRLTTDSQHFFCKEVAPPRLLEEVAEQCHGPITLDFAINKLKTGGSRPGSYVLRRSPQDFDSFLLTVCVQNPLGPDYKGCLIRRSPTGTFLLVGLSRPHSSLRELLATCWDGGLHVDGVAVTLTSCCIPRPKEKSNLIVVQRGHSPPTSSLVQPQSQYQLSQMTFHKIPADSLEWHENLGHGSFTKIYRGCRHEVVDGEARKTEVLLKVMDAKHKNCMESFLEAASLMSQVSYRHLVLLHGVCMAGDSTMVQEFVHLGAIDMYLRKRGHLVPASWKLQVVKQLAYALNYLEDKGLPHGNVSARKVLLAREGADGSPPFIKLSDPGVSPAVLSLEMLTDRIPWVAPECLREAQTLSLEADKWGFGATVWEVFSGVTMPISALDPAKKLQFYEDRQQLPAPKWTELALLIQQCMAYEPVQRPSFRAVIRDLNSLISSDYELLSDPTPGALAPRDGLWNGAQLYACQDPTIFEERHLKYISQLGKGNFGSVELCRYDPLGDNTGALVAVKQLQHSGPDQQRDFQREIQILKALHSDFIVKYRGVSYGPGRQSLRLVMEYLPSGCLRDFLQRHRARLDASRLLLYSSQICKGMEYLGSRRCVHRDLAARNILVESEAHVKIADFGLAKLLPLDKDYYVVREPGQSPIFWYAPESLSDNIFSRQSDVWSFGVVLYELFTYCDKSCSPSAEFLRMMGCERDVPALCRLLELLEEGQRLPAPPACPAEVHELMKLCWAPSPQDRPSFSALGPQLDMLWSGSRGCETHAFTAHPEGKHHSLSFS
Sequence of JAK-2 (O60674 whole entry): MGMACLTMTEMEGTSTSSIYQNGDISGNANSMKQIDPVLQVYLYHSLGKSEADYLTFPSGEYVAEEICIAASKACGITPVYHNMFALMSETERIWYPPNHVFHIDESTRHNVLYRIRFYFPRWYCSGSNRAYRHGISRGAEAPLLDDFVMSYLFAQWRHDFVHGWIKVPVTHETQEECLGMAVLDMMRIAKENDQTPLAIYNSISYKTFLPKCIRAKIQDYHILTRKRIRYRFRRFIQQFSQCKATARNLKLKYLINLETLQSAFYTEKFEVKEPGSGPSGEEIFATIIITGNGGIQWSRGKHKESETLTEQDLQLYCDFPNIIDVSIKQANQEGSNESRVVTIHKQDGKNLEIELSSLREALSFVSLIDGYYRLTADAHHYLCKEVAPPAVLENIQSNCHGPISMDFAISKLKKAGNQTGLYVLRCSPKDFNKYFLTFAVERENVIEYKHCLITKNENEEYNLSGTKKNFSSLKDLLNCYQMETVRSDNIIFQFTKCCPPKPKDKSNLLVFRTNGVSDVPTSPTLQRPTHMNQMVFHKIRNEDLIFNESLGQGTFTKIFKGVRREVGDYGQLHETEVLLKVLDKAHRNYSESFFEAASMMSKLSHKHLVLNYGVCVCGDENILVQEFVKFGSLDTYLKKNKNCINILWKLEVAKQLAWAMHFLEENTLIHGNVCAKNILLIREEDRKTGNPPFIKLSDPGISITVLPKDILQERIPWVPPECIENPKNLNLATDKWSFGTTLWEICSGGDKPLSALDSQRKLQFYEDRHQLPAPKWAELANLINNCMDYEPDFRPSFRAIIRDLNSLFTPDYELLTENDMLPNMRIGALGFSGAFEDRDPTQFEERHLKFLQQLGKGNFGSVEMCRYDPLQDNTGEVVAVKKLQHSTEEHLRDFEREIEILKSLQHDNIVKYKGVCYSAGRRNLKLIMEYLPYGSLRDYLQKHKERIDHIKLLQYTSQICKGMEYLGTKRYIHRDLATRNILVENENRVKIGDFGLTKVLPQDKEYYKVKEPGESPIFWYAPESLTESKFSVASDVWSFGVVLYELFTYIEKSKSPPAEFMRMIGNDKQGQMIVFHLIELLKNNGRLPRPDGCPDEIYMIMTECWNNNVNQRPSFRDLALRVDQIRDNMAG
Sequence of JAK-1 (P23458 whole entry): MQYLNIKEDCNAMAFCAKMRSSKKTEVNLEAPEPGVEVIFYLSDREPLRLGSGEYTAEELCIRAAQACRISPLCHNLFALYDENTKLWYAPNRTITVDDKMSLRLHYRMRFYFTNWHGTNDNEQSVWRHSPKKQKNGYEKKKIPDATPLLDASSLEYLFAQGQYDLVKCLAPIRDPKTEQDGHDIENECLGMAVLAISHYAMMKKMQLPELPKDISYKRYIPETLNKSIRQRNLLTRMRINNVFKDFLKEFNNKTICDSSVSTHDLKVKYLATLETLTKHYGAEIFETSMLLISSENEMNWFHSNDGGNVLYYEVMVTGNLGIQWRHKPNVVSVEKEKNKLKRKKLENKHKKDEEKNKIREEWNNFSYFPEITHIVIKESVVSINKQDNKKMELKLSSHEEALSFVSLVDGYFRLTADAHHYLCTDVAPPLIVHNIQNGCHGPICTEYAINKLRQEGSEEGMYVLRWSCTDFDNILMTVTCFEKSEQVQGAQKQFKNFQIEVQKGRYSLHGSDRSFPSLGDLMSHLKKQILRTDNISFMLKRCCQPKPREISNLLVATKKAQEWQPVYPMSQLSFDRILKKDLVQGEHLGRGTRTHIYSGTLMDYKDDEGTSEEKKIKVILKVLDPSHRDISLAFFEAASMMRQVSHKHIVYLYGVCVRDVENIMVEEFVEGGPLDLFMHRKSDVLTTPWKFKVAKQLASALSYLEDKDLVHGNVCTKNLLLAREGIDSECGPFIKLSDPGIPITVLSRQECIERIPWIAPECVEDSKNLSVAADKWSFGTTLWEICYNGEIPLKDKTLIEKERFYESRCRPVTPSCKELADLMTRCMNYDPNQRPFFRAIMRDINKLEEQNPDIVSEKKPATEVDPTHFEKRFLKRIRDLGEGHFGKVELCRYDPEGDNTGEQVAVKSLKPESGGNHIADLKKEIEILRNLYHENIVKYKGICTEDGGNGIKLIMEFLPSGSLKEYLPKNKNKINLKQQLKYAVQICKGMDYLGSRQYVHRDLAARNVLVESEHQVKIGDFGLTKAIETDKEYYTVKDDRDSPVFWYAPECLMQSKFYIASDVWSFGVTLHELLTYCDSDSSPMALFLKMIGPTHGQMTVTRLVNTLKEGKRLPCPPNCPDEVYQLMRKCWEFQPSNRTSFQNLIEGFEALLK

Consider `C/C=C/C(=O)Nc1ccc(Cn2ncc3cnc(Nc4cnn(CCO)c4)nc32)cc1` [Example 24, N-(4-((6-((1-(2-hydroxyethyl)-1H-pyrazol-4-yl)amino)-1H-pyrazolo[3,4-d]pyrimidin-1-yl)methyl)phenyl)but-2-enamide], for which the concentration for half-maximal inhibition (IC50) on JAK-2 stood at 948 nM; on JAK-3, 0.2 nM; on JAK-1, 1120 nM.
As for `C/C=C/C(=O)Nc1ccc(Cn2ncc3cnc(Nc4ccccc4)nc32)cc1` [Example 25, N-(4-((6-aniline-1H-pyrazolo[3,4-d]pyrimidin-1-yl)methyl)phenyl)but-2-enamide], the IC50 at JAK-2 was 1040 nM; on JAK-3, 1.2 nM; on JAK-1 it was 2400 nM.
The matching figures for `C/C=C/C(=O)Nc1ccc(Cn2ncc3cnc(Nc4ccc(F)cc4)nc32)cc1` [Example 26, N-(4-((6-((4-fluorophenyl)amino)-1H-pyrazolo[3,4-d]pyrimidine-1-yl)methyl)phenyl)but-2-enamide]: 804 nM, 0.3 nM and 880 nM.
Regarding `C/C=C/C(=O)Nc1ccc(Cn2ncc3cnc(Nc4ccc(N5CCOCC5)cc4)nc32)cc1` [Example 27, N-(4-((6-((4-morpholinylphenyl)amino)-1H-pyrazolo[3,4-d]pyrimidin-1-yl)methyl)phenyl)but-2-enamide], the IC50 on JAK-2 amounted to 893 nM; at JAK-3, 2 nM; on JAK-1, 960 nM.
The matching figures for `C/C=C/C(=O)Nc1ccc(Cn2ncc3cnc(Nc4ccc(N5CCN(C)CC5)cc4)nc32)cc1` [Example 28, N-(4-((6-((4-(4-methylpiperazin-1-yl)phenyl)amino)-1H-pyrazolo[3,4-d]pyrimidin-1-yl)methyl)phenyl)but-2-enamide]: 790 nM, 2.3 nM and 4090 nM.
